Values joined by “and” are separate entries in the source; they are usually repeats but may differ in a detail not shown here. Equal values may be shown once. Read-outs that look alike come from different tables or passages of the source.
Key:
E. coli (ATCC 25922) = assay: Inactivation of E. coli by disinfectants (membrane filter enumeration, contact time 5 min); format: cell-based, Escherichia coli; details: for log reduction at 350 µg/mL / EC (3-log inactivation) / log reduction at 1200 µg/mL: Escherichia coli, ATCC25922, 5 min; for log reduction at 350 µg/mL: dose 350 mg L-1; for log reduction at 350 µg/mL / log reduction at 1200 µg/mL: 5 min; for EC (3-log inactivation): pH 7.2, read-out: Dose for achieving 3-log inactivation of E. coli; for E. coli inactivation rate constant k: pH 7.2, contact time 5 min; for log reduction at 1200 µg/mL: dose 1200 mg L-1
Procedure: (§1) The chemicals and reagents used are detailed in Supplementary Note 1. The bacteria E. coli (ATCC 25922) and S. aureus (ATCC 25923) were cultured aerobically in Luria-Bertani broth (Sigma-Aldrich) and Tryptone Soya broth (Oxoid), respectively, at 37 °C for 16 h. The fungus C. albicans (ATCC 14053) was aerobically cultured in Sabouraud Dextrose broth (Difco) at 37 °C for 24 h. The microorganism cells were harvested by centrifugation at 1200×g (10 min, 4 °C) and resuspended in phosphate-buffered saline (PBS, 10 mM, pH 7.2). The disinfection experiments were performed in PBS solutions (10 mM, pH 7.2) with an initial concentration of E. coli, S. aureus, or C. albicans of 10^6‒10^7 cells per milliliter. A contact time of 5 min was used in accordance with the recommended time range of 0.25–10 min by USEPA for surface disinfection. Preliminary tests were conducted to determine the appropriate range of DBP doses. The appropriate dose range was established when the lowest and highest doses could achieve <1-log and >3-log of microbial inactivation, respectively. Based on the preliminary results, a series of doses of DBPs were added to the cell suspensions at room temperature (22 ± 1 °C). After the contact time of 5 min, the microorganism cells were enumerated following a membrane filter method. Briefly, serial 10-fold dilutions were conducted for the disinfected samples and the control sample without disinfection. Each diluted suspension was subjected to filtration through 0.45-μm membrane, which was then placed on a petri dish. The Petri dishes containing E. coli, S. aureus, and C. albicans were incubated in m-FC medium (Becton Dickinson & Co) at 45 °C for 24 h, in Tryptone Soya broth at 37 °C for 24 h and in Sabouraud Dextrose broth at 37 °C for 24 h, respectively. After incubation, the colony-forming units within a statistically reasonable range (20–80) were counted.
The impact of pH on the disinfection efficiencies of DBPs was examined. E. coli (ATCC 25922) was used as the test strain. The disinfection experiments were performed in 10 mM PBS solutions (pH 6.2, 7.2, and 8.2) with an initial E. coli concentration of 10^6‒10^7 cells per milliliter. To initiate the disinfection, a DBP was dosed with a bacteria suspension at a predetermined concentration. After the given contact time (5 min) at room temperature (22 ± 1 °C), the bacteria were enumerated following the membrane filter method. The bacteria concentrations in the 10 mM PBS solutions (pH 6.2, 7.2, and 8.2) without the addition of DBPs were used as controls.

S. aureus (ATCC 25923) = assay: Inactivation of S. aureus (contact time 5 min); format: cell-based, Staphylococcus aureus; details: Staphylococcus aureus, ATCC25923, 5 min, pH 7.2, read-out: Log (N/N0), S. aureus; dose 300 mg L-1; pH 7.2; contact time 5 min
Procedure: as §1

C. albicans (ATCC 14053) = assay: Inactivation of C. albicans (contact time 5 min); format: cell-based, Candida albicans; details: Candida albicans, ATCC14053, 5 min, pH 7.2, read-out: Log (N/N0), C. albicans; dose 300 mg L-1; pH 7.2; contact time 5 min
Procedure: as §1

[1] = test system: bacteriophage MS2 (ATCC 15597-B1); assay: Inactivation of bacteriophage MS2 (double-layer agar, contact time 5 min); format: cell-based; details: Escherichia phage MS2, ATCC15597, 5 min, pH 7.2, read-out: Log (N/N0), MS2; dose 300 mg L-1; pH 7.2; contact time 5 min
Procedure: The bacteriophage MS2 (ATCC 15597-B1) was propagated in the host E. coli (ATCC 15597) in Tryptone Soya broth at 37 °C for 16 h. The viruses were separated from the bacterial debris and purified by centrifuging the phage culture (4000×g, 10 min, 4 °C) and filtering the lysate with a 0.2 μm polyethersulfone sterile filter. The filtrate was then diluted in PBS (10 mM, pH 7.2) to an initial MS2 concentration of 10^9‒10^10 plaque-forming units […]. To initiate the disinfection experiments, a series of DBP doses were added to the MS2 suspension at room temperature (22 ± 1 °C). […] Briefly, serial 10-fold dilutions were conducted for the disinfected samples and the control sample without disinfection. Each dilution was mixed with the host E. coli in the soft agar and the mixture was immediately spread onto a Petri dish with Tryptone Soya agar. After the Petri dishes were incubated at 37 °C for 16 h, the plaque-forming units were counted. The disinfection experiments were performed in duplicate. All the materials for the disinfection experiments were autoclaved before use.

P. dumerilii embryos = assay: Developmental toxicity assay with P. dumerilii embryos, dilution factor of in-use concentration (EC50,DF), also after degradation in darkness; format: in vivo, Platynereis dumerilii
Text: The DBP doses for 3-log E. coli reduction (pH 7.2) were set as the in-use concentrations, which were serially diluted and added to the P. dumerilii embryos at 12-h postfertilization. A dilution factor was defined as the ratio of the in-use concentration to the exposure concentration. Each exposure set contained a control sample (i.e., the embryos at 12-h postfertilization developed in seawater without the addition of DBPs). By 24-h postfertilization, normally developed embryos should have reached the first larval stage. An inverted stereomicroscope (×40 magnification) was used to observe the larvae. The normal development percentage was calculated as the ratio of normally developed embryos to total embryos. By plotting the curve of the normal development percentage versus the dilution factor, the EC50,DF value (i.e., the dilution factor corresponding to 50% of the normal development percentage of the control sample) was obtained using SigmaPlot 12. The developmental toxicity test was conducted in duplicate.

[2] = Degradation in seawater with simulated solar irradiation; details: for half-life at 10 mg L−1: buffer, pH 8.2; for Ln (C/C0): seawater pH 8.2, solar irradiation
Procedure: The solar photolysis experiments were conducted in a chamber equipped with eight simulated sunlight full-spectrum lamps (BlueMax 5900, Full Spectrum Solutions). The temperature in the chamber was maintained at 20 °C. The total intensity of simulated sunlight was determined using a digital photometer (DT-1010B, Shenzhen Golden Octopus, China). Quartz flasks were positioned in the chamber where the total intensity of simulated sunlight was 4.79 ± 0.04 mW cm^−2 for each quartz flask. […] A DBP was added at 10 mg L^−1 to 50 mL pretreated seawater (pH 8.2) in the quartz flasks and exposed to the simulated solar irradiation for 0‒96 h. Every 8 h, the quartz flasks were rotated in and out of the chamber, and the sample volume was determined and adjusted with ultrapure water to account for any water evaporation. During the solar irradiation experiments, the sample was adjusted to pH 6.2 and 7.2 or maintained at pH 8.2 by adding 4 mM phosphate buffer (pH 6.2, 7.2, and 8.2, respectively).
(§2) For the DBP samples with and without sunlight, aliquots were taken at a specific reaction time. The sample aliquots were analyzed using Agilent high-performance liquid chromatography (HPLC) equipped with a Poroshell 120 EC-C18 column (4.6 × 150 mm, 4 µm particle size, Agilent) and a UV detector. The mobile phase, consisting of water (pre-adjusted to pH 2 with phosphoric acid) and acetonitrile at 50/50 (v/v), was applied at a flow rate of 1.0 mL min^−1. PCMX, 2,4-dihalophenols and 5-halosalicylic acids were detected at the wavelength of 230 nm. 2,5-Dihalohydroquinones and 2,6-DCQ were detected at the wavelength of 280 nm. All the degradation experiments were conducted in duplicate.

[3] = Degradation in seawater in darkness (pH 6.2, 7.2, 8.2); details: for Ln (C/C0): seawater pH 8.2, darkness
Procedure: To study the DBP degradation in seawater in darkness, a DBP was added at 10 mg L^−1 to 50 mL pretreated seawater (pH 8.2) in the quartz flasks. The flasks were wrapped with aluminum foil to simulate the dark condition. The samples were kept at 20 °C in darkness for 0‒120 h, during which the sample was adjusted to pH 6.2 and 7.2 or maintained at pH 8.2 by adding 4 mM phosphate buffer (pH 6.2, 7.2, and 8.2, respectively).
as §2

[4] = pH 6.2, read-out: Log (N/N0), E. coli, pH 6.2
[5] = pH 7.2, read-out: Log (N/N0), E. coli, pH 7.2
[6] = pH 8.2, read-out: Log (N/N0), E. coli, pH 8.2

## Oc1ccc(Br)cc1Br [2,4-DBPh, 2,4-dibromophenol]
E. coli (ATCC 25922); [4]
  log reduction at 350 µg/mL: 3.35
E. coli (ATCC 25922)
  EC (3-log inactivation): 341 µg/mL
  E. coli inactivation rate constant k: 0.28 L mg‒1 h‒1
E. coli (ATCC 25922); [5]
  log reduction at 350 µg/mL: 3.26
E. coli (ATCC 25922); [6]
  log reduction at 350 µg/mL: 3.57
S. aureus (ATCC 25923)
  log reduction at 300 µg/mL: 0.669
C. albicans (ATCC 14053)
  log reduction at 300 µg/mL: 1.67
[1]
  log reduction at 300 µg/mL: 0.966
P. dumerilii embryos; dilution factor 11.1486
  Normal development (%): 0%
P. dumerilii embryos; dilution factor 13.3783
  Normal development (%): 15.2624% and 20.2196%
P. dumerilii embryos; dilution factor 16.7229
  Normal development (%): 45.6306% and 47.4814%
P. dumerilii embryos; dilution factor 22.2972
  Normal development (%): 71.5034% and 77.6566%
P. dumerilii embryos; dilution factor 33.4458
  Normal development (%): 83.2326% and 85.1374%
P. dumerilii embryos; dilution factor 66.8916
  Normal development (%): 89.9171% and 84.7809%
P. dumerilii embryos; dilution factor 133.783
  Normal development (%): 89.4695% and 80.5305%
[2]
  half-life at 10 mg L−1: 35 h
[2]; 0 h
  Ln (C/C0): 0
[3]; 0 h
  Ln (C/C0): 0

## Oc1cc(Cl)c(O)cc1Cl [2,5-DCHQ, 2,5-dichlorohydroquinone]
E. coli (ATCC 25922); [4]
  log reduction at 1200 µg/mL: 2.28
E. coli (ATCC 25922)
  EC (3-log inactivation): 946 µg/mL
  E. coli inactivation rate constant k: 0.05 L mg‒1 h‒1
E. coli (ATCC 25922); [5]
  log reduction at 1200 µg/mL: 3.73
E. coli (ATCC 25922); [6]
  log reduction at 1200 µg/mL: 4.18
S. aureus (ATCC 25923)
  log reduction at 300 µg/mL: 0.434
P. dumerilii embryos; dilution factor 557.542
  Normal development (%): 8.642% and 6.061%
P. dumerilii embryos; dilution factor 1115.08
  Normal development (%): 42.6369% and 40.0555%
P. dumerilii embryos; dilution factor 1393.85
  Normal development (%): 77.0891% and 77.2417%
P. dumerilii embryos; dilution factor 2787.71
  Normal development (%): 85.5556% and 87.7778%
P. dumerilii embryos; dilution factor 5575.42
  Normal development (%): 88.6789% and 83.1961%
[2]
  half-life at 10 mg L−1: 0.12 h
[2]; 0 min
  Ln (C/C0): 0
[3]; buffer, pH 8.2
  half-life at 10 mg L−1: 7.8 min
[3]; pH 6.2, degradation time 0 min
  Relative concentration remaining (1 at 0 min): 1
[3]; pH 6.2, degradation time 15 min
  Relative concentration remaining (1 at 0 min): 1.022 and 0.9793
[3]; pH 6.2, degradation time 30 min
  Relative concentration remaining (1 at 0 min): 0.9852 and 1.003
[3]; pH 6.2, degradation time 60 min
  Relative concentration remaining (1 at 0 min): 1.02 and 0.9636
[3]; pH 6.2, degradation time 90 min
  Relative concentration remaining (1 at 0 min): 0.9949 and 0.9533
[3]; pH 6.2, degradation time 120 min
  Relative concentration remaining (1 at 0 min): 0.9685 and 0.9533
[3]; pH 6.2, degradation time 180 min
  Relative concentration remaining (1 at 0 min): 0.9436 and 0.9061
[3]; pH 6.2, degradation time 240 min
  Relative concentration remaining (1 at 0 min): 0.9109 and 0.8967
[3]; pH 7.2, degradation time 0 min
  Relative concentration remaining (1 at 0 min): 1
[3]; pH 7.2, degradation time 15 min
  Relative concentration remaining (1 at 0 min): 0.972 and 0.958
[3]; pH 7.2, degradation time 30 min
  Relative concentration remaining (1 at 0 min): 0.8774 and 0.8538
[3]; pH 7.2, degradation time 45 min
  Relative concentration remaining (1 at 0 min): 0.7996 and 0.7512
[3]; pH 7.2, degradation time 60 min
  Relative concentration remaining (1 at 0 min): 0.6873 and 0.677
[3]; pH 7.2, degradation time 90 min
  Relative concentration remaining (1 at 0 min): 0.5344 and 0.5155
[3]; pH 7.2, degradation time 120 min
  Relative concentration remaining (1 at 0 min): 0.3928 and 0.369
[3]; pH 7.2, degradation time 180 min
  Relative concentration remaining (1 at 0 min): 0.2793 and 0.2513
[3]; pH 8.2, degradation time 0 min
  Relative concentration remaining (1 at 0 min): 1
[3]; pH 8.2, degradation time 3 min
  Relative concentration remaining (1 at 0 min): 0.7671 and 0.7343
[3]; pH 8.2, degradation time 8 min
  Relative concentration remaining (1 at 0 min): 0.4955 and 0.4354
[3]; pH 8.2, degradation time 12 min
  Relative concentration remaining (1 at 0 min): 0.3245 and 0.3105
[3]; pH 8.2, degradation time 16 min
  Relative concentration remaining (1 at 0 min): 0.2259 and 0.2074
[3]; pH 8.2, degradation time 20 min
  Relative concentration remaining (1 at 0 min): 0.1584 and 0.1371
[3]; pH 8.2, degradation time 25 min
  Relative concentration remaining (1 at 0 min): 0.1047 and 0.0786
[3]; 0 min
  Ln (C/C0): 0

Source: paper PMC11161644, “An effective and rapidly degradable disinfectant from disinfection byproducts” (Nature Communications, 2024)
